Test results: PubChem BioAssay (NCI)
“And” between values parts separate entries of the source, which are not always exact repeats. Equal entries are not always repeated.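 Cultured in 96-well plates, cells were exposed to test compound for 48 hours across five concentrations. Abbreviation: GI50, concentration required for 50% inhibition of growth. TGI denotes the concentration required for complete inhibition of growth.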

What was measured:
Test in all cases: inhibition of tumour cell growth, NCI panel, 48 h
SNB-75 CNS = test system: SNB-75 CNS
SNB-19 CNS = test system: SNB-19 CNS
MALME-3M melanoma = test system: MALME-3M melanoma
OVCAR-3 ovarian = test system: OVCAR-3 ovarian
RPMI-8226 leukemia = test system: RPMI-8226 leukemia
ACHN renal = test system: ACHN renal
HOP-92 NSCLC = test system: HOP-92 NSCLC
SF-539 CNS = test system: SF-539 CNS
KM12 colon = test system: KM12 colon
NCI/ADR-RES ovarian = test system: NCI/ADR-RES ovarian

Row | Structure (SMILES) | TGI (SNB-75 CNS) [µM] | TGI (SNB-19 CNS) [µM] | TGI (MALME-3M melanoma) | TGI (OVCAR-3 ovarian) [µM] | TGI (RPMI-8226 leukemia) [µM] | TGI (ACHN renal) [µM] | TGI (HOP-92 NSCLC) [µM] | TGI (SF-539 CNS) [µM] | TGI (KM12 colon) [µM] | TGI (NCI/ADR-RES ovarian) [µM] | GI50 (SNB-19 CNS) | GI50 (OVCAR-3 ovarian) [µM] | GI50 (RPMI-8226 leukemia) [µM] | GI50 (ACHN renal) [µM] | GI50 (HOP-92 NSCLC) [µM] | GI50 (SF-539 CNS) [µM] | GI50 (KM12 colon) [µM] | GI50 (NCI/ADR-RES ovarian) [µM] | GI50 (SNB-75 CNS) [µM] | GI50 (MALME-3M melanoma)
1 | Cc1cc(C(=O)CSC(=S)SC(C)(C)C)ccc1Cl | 54.3 | 32 | 33.4 µM | 35.4 | 52.1 | 62.9 | 70.3 | 35.7 | 53.3 | 42.1 | – | – | – | – | – | – | – | – | – | –
2 | COc1ccc(-c2c(C#N)c(N3CCOCC3)nc3[nH]c(=S)[nH]c(=S)c23)cc1OC | – | > 100 | – | > 100 | 70.5 | > 100 | > 100 | > 100 | > 100 | > 100 | > 100 µM | 34.6 | 9.74 | 35.8 | 48.2 | 39.1 | 29.1 | 56.6 | – | –
3 | CCOC(=O)c1c(C)c2c(n1Cc1ccccc1)CSCC2=O | > 100 | > 100 | 49.2 µM | 46.2 | > 100 | > 100 | 19.8 | 50.9 | 37.9 | 51.4 | 14.2 µM | 17.5 | 14.4 | 18.8 | 1.21 | 17.5 | 15 | 16.7 | 18.4 | 17.5 µM
4 | NNc1ncnc2nc[nH]c12 | > 100 | > 100 | > 100 µM | 26.9 | 17.1 | > 94 | 55.4 | > 100 | 44.5 | > 100 | 28.7 µM | 3.56 | 2.09 | 4.78 | 4 | 21.2 | 3.56 | 3.37 | 24.7 | 28.6 µM
5 | COc1cc(/C=C2\CCCCC3=C2N=C2SC(C)=CN2C3c2cc(OC)c(OC)c(OC)c2)cc(OC)c1OC (stereo not given) | 9.09 | > 100 | > 100 µM | > 100 | > 100 | > 100 | > 100 | > 100 | > 100 | > 100 | > 100 µM | 23.7 | 0.013 | 11.9 | 0.609 | > 100 | 36.8 | 12 | 1.9 | 15.2 µM
6 | NCCCn1c2c(c3ccc([N+](=O)[O-])cc3c1=O)C(=O)c1cc(I)ccc1-2 | 3.9 | 1.61 | 1.86 µM | 2.9 | 0.265 | 1.29 | 2.25 | 1.21 | 1.31 | 1.88 | < 0.01 µM | 1.19 | 0.0218 | < 0.0179 | 0.65 | 0.0435 | 0.127 | 0.0416 | 0.95 | 0.228 µM
7 | CC(C)=CCC1=C(O)c2ccccc2C(=O)C1=O | > 100 | > 100 | > 100 µM and 96.2 µM | > 100 | > 100 | > 100 | > 100 | > 100 | > 100 | > 100 | > 100 µM and 16.4 µM and 29.4 µM | – | – | – | – | – | – | 12.4 | – | > 100 µM and 35.1 µM and 20.4 µM
8 | N#CC(I)CS(=O)(=O)c1ccccc1 (stereo not given) | 36 | > 100 | 4.27 µM | 3.55 | 41.4 | 3.35 | 26.9 | 32.5 | 34.4 | 35.1 | > 100 µM | 2.03 | 17.5 | 1.87 | 13.2 | 18.2 | 18.9 | 17.5 | 15.6 | 2.13 µM
9 | COc1cc2c3c(n(C)c(=O)c2cc1OC)-c1cc2c(cc1C3=O)OCO2 | 22.6 | > 100 | > 100 µM | > 100 | > 100 | > 60.5 | > 100 | 23.9 | > 100 | > 100 | – | – | – | – | – | – | – | – | – | –
10 | C[C@H](CCOc1cccc(CC(=O)O)c1)N(Cc1cccc(C(F)(F)F)c1Cl)CC(c1ccccc1)c1ccccc1 | 22 | 19.8 | 21.7 µM | 15.9 | 22.1 | 17 | 16.5 | 20.4 | 15.1 | 21.3 | 6.25 µM | 4.77 | 3.48 | 5.11 | 3.21 | 6.14 | 4.1 | 6.97 | 9.83 | 7.39 µM
11 | COC(=O)C1=CN(CC2=CC(=O)C(C)=CC2=O)C=C(C(=O)OC)C1c1ccccc1OC | > 100 | > 100 | 33.3 µM | 26.8 | 40.7 | 30.6 | 21.9 | 60.3 | > 72.3 | 34.8 | > 54.9 µM | 13.2 | 10.3 | 14.8 | 9.31 | 21.2 | 23.6 | 17.4 | > 100 | 14 µM
12 | COc1c(C)c(OCC=C(C)C)cc(CO)c1CO | > 100 | > 100 | – | – | > 100 | > 100 | > 100 | > 100 | > 100 | > 100 | – | – | – | – | – | – | – | – | – | –
13 | COc1ccc(CNc2c3ccccc3nc3ccccc23)cc1F | 15.2 | 14.7 | 7.73 µM | 13.3 | 7.25 | 11.3 | 7.61 | 10.7 | 15.1 | 10.3 | 3.41 µM | 4.08 | 2.64 | 3.03 | 1.96 | 3.04 | 3.93 | 2.58 | 3.21 | 2.71 µM
14 | Cc1nc2c(Br)cc(Br)cc2c(=O)n1-c1nnc(-c2cccc(Cl)c2Cl)c(N)n1 | > 100 | > 100 | – | 60.4 | 87 | 56.1 | > 100 | 60 | 40.3 | 37.5 | 42 µM | 18.6 | 9.39 | 19.5 | 42.4 | 21.6 | 11.4 | 13.6 | 33.6 | –
